One may read the IC50 as the concentration that inhibits the measured activity by half.

The test has as its target T1, recombinant human KLK5 (Homo sapiens, UniProt Q9Y337).
T1 construct: purchased Novoprotein or R&D Systems C415 or 1108-SE
T1 sequence (Q9Y337 23-293): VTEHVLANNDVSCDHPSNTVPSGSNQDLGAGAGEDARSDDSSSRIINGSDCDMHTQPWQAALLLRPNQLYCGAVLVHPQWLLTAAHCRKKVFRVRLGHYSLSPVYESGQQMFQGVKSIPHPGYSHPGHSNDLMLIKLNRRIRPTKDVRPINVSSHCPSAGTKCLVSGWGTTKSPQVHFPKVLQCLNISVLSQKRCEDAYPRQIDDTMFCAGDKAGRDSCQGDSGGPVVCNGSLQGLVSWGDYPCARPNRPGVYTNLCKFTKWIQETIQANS
Description: Kallikrein (KLK) 5 enzymatic assay (Boc-VPR-AMC fluorogenic substrate). Format: biochemical. The conditions noted are these: recombinant human KLK5 0.1 μg/well, Boc-VPR-AMC 100 μM, pH 7.5, room temperature, 1% DMSO; tested a minimum of three times. In short, it runs like this: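 Recombinant human KLK5 (0.1 μg/well) was preincubated with compound at room temperature in 0.1 M NaH2PO4, pH 7.5, 1% DMSO, then started with 100 μM Boc-VPR-AMC. The rate was followed at 380/460 nm, and IC50 came from percent inhibition relative to enzyme alone, with at least three runs.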
For `Cc1ccc(OCc2nn(C3CCC3)c3ccc(-c4cccc5c(N)nccc45)cc23)c(CC(=O)O)c1` [Compound 165b, 2-(2-((5-(1-aminoisoquinolin-5-yl)-1-cyclobutyl-1H-indazol-3-yl)methoxy)-5-methylphenyl)acetic acid], the 50% inhibitory concentration (IC50) was below 1000 nM.

For the compound `Nc1nccc2ccc(-c3ccc4c(c3)c(COc3ccc(F)cc3CC(=O)O)nn4C3CCC3)cc12` [Compound 166d, 2-(2-((5-(1-aminoisoquinolin-7-yl)-1-cyclobutyl-1H-indazol-3-yl)methoxy)-5-fluorophenyl)acetic acid], the IC50 is below 1000 nM.

For the compound `Nc1nccc2c(-c3ccc4c(c3)c(COc3ccc(F)cc3CC(=O)O)nn4C3CCC3)cccc12` [Compound 167b, 2-(2-((5-(1-aminoisoquinolin-5-yl)-1-cyclobutyl-1H-indazol-3-yl)methoxy)-5-fluorophenyl)acetic acid], the IC50 is below 1000 nM.

In the case of `Nc1nccc2c(-c3ccc4c(c3)c(COc3cc(F)ccc3CC(=O)O)nn4C3CCC3)cccc12` [Compound 168c, 2-(2-((5-(1-aminoisoquinolin-5-yl)-1-cyclobutyl-1H-indazol-3-yl)methoxy)-4-fluorophenyl)acetic acid], the 50% inhibitory concentration (IC50) is below 1000 nM.

For `COc1ccc(CC(=O)O)c(OCc2nn(C3CCC3)c3ccc(-c4cccc5c(N)nccc45)cc23)c1` [Compound 169c, 2-(2-((5-(1-aminoisoquinolin-5-yl)-1-cyclobutyl-1H-indazol-3-yl)methoxy)-4-methoxyphenyl)acetic acid], the half-maximal inhibitory concentration (IC50) is below 1000 nM.

As to `COc1ccc(OCc2nn(C3CCC3)c3ccc(-c4ccc5ccnc(N)c5c4)cc23)c(CC(=O)O)c1` [Compound 170c, 2-(2-((5-(1-aminoisoquinolin-7-yl)-1-cyclobutyl-1H-indazol-3-yl)methoxy)-5-methoxyphenyl)acetic acid], the half-inhibitory concentration (IC50) was below 1000 nM.

Regarding `COc1ccc(OCc2nn(C3CCC3)c3ccc(-c4cccc5c(N)nccc45)cc23)c(CC(=O)O)c1` [Compound 171b, 2-(2-((5-(1-aminoisoquinolin-5-yl)-1-cyclobutyl-1H-indazol-3-yl)methoxy)-5-methoxyphenyl)acetic acid], the IC50 is below 1000 nM.

As to `COc1cccc(OCc2nn(C3CCC3)c3ccc(-c4ccc5ccnc(N)c5c4)cc23)c1CC(=O)O` [Compound 172d, 2-(2-((5-(1-aminoisoquinolin-7-yl)-1-cyclobutyl-1H-indazol-3-yl)methoxy)-6-methoxyphenyl)acetic acid], the IC50 lay in the range of 1000 to 10000 nM.

On to `COc1cccc(OCc2nn(C3CCC3)c3ccc(-c4cccc5c(N)nccc45)cc23)c1CC(=O)O` [Compound 173b, 2-(2-((5-(1-aminoisoquinolin-5-yl)-1-cyclobutyl-1H-indazol-3-yl)methoxy)-6-methoxyphenyl)acetic acid], for which the IC50 was below 1000 nM.

For the compound `CCOC(=O)Cc1cccc(C#N)c1OCc1nn(C2CCC2)c2ccc(Br)cc12` [Compound 174c, ethyl 2-(2-((5-bromo-1-cyclobutyl-1H-indazol-3-yl)methoxy)-3-cyanophenyl)acetate], the IC50 is 1000 to 10000 nM.

In the case of `N#Cc1cccc(CC(=O)O)c1OCc1nn(C2CCC2)c2ccc(-c3cccc4c(N)nccc34)cc12` [Compound 175b, 2-(2-((5-(1-aminoisoquinolin-5-yl)-1-cyclobutyl-1H-indazol-3-yl)methoxy)-3-cyanophenyl)acetic acid], the half-maximal inhibitory concentration (IC50) was in the range of 1000 to 10000 nM.

Consider `Nc1nccc2ccc(-c3ccc4c(c3)c(COc3c(CC(=O)O)cccc3C(=O)O)nn4C3CCC3)cc12` [Compound 176a, 2-((5-(1-aminoisoquinolin-7-yl)-1-cyclobutyl-1H-indazol-3-yl)methoxy)-3-(carboxymethyl)benzoic acid], for which the IC50 was below 1000 nM.

Regarding `Nc1nccc2c(-c3ccc4c(c3)c(COc3c(CC(=O)O)cccc3C(=O)O)nn4C3CCC3)cccc12` [Compound 177a, 2-((5-(1-aminoisoquinolin-5-yl)-1-cyclobutyl-1H-indazol-3-yl)methoxy)-3-(carboxymethyl)benzoic acid], the IC50 is 1000 to 10000 nM.

Regarding `CCn1nc(COc2ccccc2CC(=O)O)c2cc(-c3cccc4c(N)nccc34)ccc21` [Compound 178f, 2-(2-((5-(1-aminoisoquinolin-5-yl)-1-ethyl-1H-indazol-3-yl)methoxy)phenyl)acetic acid], the 50% inhibitory concentration (IC50) was below 1000 nM.

As for `CCn1nc(COc2ccccc2CC(=O)O)c2cc(-c3ccc4ccnc(N)c4c3)ccc21` [Compound 179b, 2-(2-((5-(1-aminoisoquinolin-7-yl)-1-ethyl-1H-indazol-3-yl)methoxy)phenyl)acetic acid], the 50% inhibitory concentration (IC50) is below 1000 nM.

With `CCc1cccc(OCc2nn(C3CCC3)c3ccc(-c4ccc5ccnc(N)c5c4)cc23)c1CC(=O)O` [Compound 180g, 2-(2-((5-(1-aminoisoquinolin-7-yl)-1-cyclobutyl-1H-indazol-3-yl)methoxy)-6-ethylphenyl)acetic acid], the IC50 was in the range of 1000 to 10000 nM.

On to `CCc1cccc(OCc2nn(C3CCC3)c3ccc(-c4cccc5c(N)nccc45)cc23)c1CC(=O)O` [Compound 181b, 2-(2-((5-(1-aminoisoquinolin-5-yl)-1-cyclobutyl-1H-indazol-3-yl)methoxy)-6-ethylphenyl)acetic acid], for which the 50% inhibitory concentration (IC50) was below 1000 nM.

As to `CCOC(=O)Cc1ccccc1OCc1nn(CCF)c2ccc(Br)cc12` [Compound 182c, ethyl 2-(2-((5-bromo-1-(2-fluoroethyl)-1H-indazol-3-yl)methoxy)phenyl)acetate], the IC50 is below 1000 nM.

Regarding `Nc1nccc2c(-c3ccc4c(c3)c(COc3ccccc3CC(=O)O)nn4CCF)cccc12` [Compound 183b, 2-(2-((5-(1-aminoisoquinolin-5-yl)-1-(2-fluoroethyl)-1H-indazol-3-yl)methoxy)phenyl)acetic acid], the IC50 was below 1000 nM.

For the compound `CCCCn1nc(COc2ccccc2CC(=O)O)c2cc(-c3ccc4ccnc(N)c4c3)ccc21` [Compound 184e, 2-(2-((5-(1-aminoisoquinolin-7-yl)-1-butyl-1H-indazol-3-yl)methoxy)phenyl)acetic acid], the half-inhibitory concentration (IC50) was below 1000 nM.

In the case of `CCCCn1nc(COc2ccccc2CC(=O)O)c2cc(-c3cccc4c(N)nccc34)ccc21` [Compound 185b, 2-(2-((5-(1-aminoisoquinolin-5-yl)-1-butyl-1H-indazol-3-yl)methoxy)phenyl)acetic acid], the IC50 is below 1000 nM.

With `CCCn1nc(COc2ccccc2CC(=O)O)c2cc(-c3ccc4ccnc(N)c4c3)ccc21` [Compound 186e, 2-(2-((5-(1-aminoisoquinolin-7-yl)-1-propyl-1H-indazol-3-yl)methoxy)phenyl)acetic acid], the IC50 is below 1000 nM.

On to `CCCn1nc(COc2ccccc2CC(=O)O)c2cc(-c3cccc4c(N)nccc34)ccc21` [Compound 187b, 2-(2-((5-(1-aminoisoquinolin-5-yl)-1-propyl-1H-indazol-3-yl)methoxy)phenyl)acetic acid], for which the IC50 is below 1000 nM.

For the compound `CC(C)Cn1nc(COc2ccccc2CC(=O)O)c2cc(-c3ccc4ccnc(N)c4c3)ccc21` [Compound 188e, 2-(2-((5-(1-aminoisoquinolin-7-yl)-1-isobutyl-1H-indazol-3-yl)methoxy)phenyl)acetic acid], the half-inhibitory concentration (IC50) is below 1000 nM.

`CC(C)Cn1nc(COc2ccccc2CC(=O)O)c2cc(-c3cccc4c(N)nccc34)ccc21` [Compound 189b, 2-(2-((5-(1-aminoisoquinolin-5-yl)-1-isobutyl-1H-indazol-3-yl)methoxy)phenyl)acetic acid]: the half-maximal inhibitory concentration (IC50) is below 1000 nM.

Turning to `CC[C@@H](C)n1nc(COc2ccccc2CC(=O)O)c2cc(-c3ccc4ccnc(N)c4c3)ccc21` [Compound 190e, (R)-2-(2-((5-(1-aminoisoquinolin-7-yl)-1-(sec-butyl)-1H-indazol-3-yl)methoxy)phenyl)acetic acid], the IC50 was below 1000 nM.

As for `CC[C@@H](C)n1nc(COc2ccccc2CC(=O)O)c2cc(-c3cccc4c(N)nccc34)ccc21` [Compound 191b, (R)-2-(2-((5-(1-aminoisoquinolin-5-yl)-1-(sec-butyl)-1H-indazol-3-yl)methoxy)phenyl)acetic acid], the 50% inhibitory concentration (IC50) was below 1000 nM.

Take `CC[C@H](C)n1nc(COc2ccccc2CC(=O)O)c2cc(-c3ccc4ccnc(N)c4c3)ccc21` [Compound 192e, (S)-2-(2-((5-(1-aminoisoquinolin-7-yl)-1-(sec-butyl)-1H-indazol-3-yl)methoxy)phenyl)acetic acid]: the IC50 is below 1000 nM.

`CC[C@H](C)n1nc(COc2ccccc2CC(=O)O)c2cc(-c3cccc4c(N)nccc34)ccc21` [Compound 193b, (S)-2-(2-((5-(1-aminoisoquinolin-5-yl)-1-(sec-butyl)-1H-indazol-3-yl)methoxy)phenyl)acetic acid]: the IC50 is below 1000 nM.

Turning to `CC(C)(C)OC(=O)N1CC(Cn2nc(COc3ccccc3CC(=O)O)c3cc(-c4ccc5ccnc(N)c5c4)ccc32)C1` [Compound 194g, 2-(2-((5-(1-aminoisoquinolin-7-yl)-1-((1-(tert-butoxycarbonyl)azetidin-3-yl)methyl)-1H-indazol-3-yl)methoxy)phenyl)acetic acid], the 50% inhibitory concentration (IC50) is below 1000 nM.

As for `CC(C)(C)OC(=O)N1CC(Cn2nc(COc3ccccc3CC(=O)O)c3cc(-c4cccc5c(N)nccc45)ccc32)C1` [Compound 195b, 2-(2-((5-(1-aminoisoquinolin-5-yl)-1-((1-(tert-butoxycarbonyl)azetidin-3-yl)methyl)-1H-indazol-3-yl)methoxy)phenyl)acetic acid], the concentration for half-maximal inhibition (IC50) was below 1000 nM.

These data come from patent US20240239752A1, “BICYCLIC HETEROAROMATIC INHIBITORS OF KLK5” (BioCryst Pharmaceuticals, Inc., priority 2021, published 2024).
